# Laboratory results reported in publication PMC6032411, “Synthesis and Biological Evaluation of Zeise’s Salt Derivatives with Acetylsalicylic Acid Substructure” (International Journal of Molecular Sciences, 2018).
# Tests used:
# ovine COX-1 = biological target: T1, ovine COX-1 (Ovis aries, UniProt P05979); assay: COX-1 isoenzyme inhibition (COX Inhibitor Screening Assay, enzyme immunoassay); type: biochemical; settings: 10 µM, incubation 10 min, isolated enzyme
# T1 construct: purchased Cayman Chemicals
# T1 sequence (P05979 25-600): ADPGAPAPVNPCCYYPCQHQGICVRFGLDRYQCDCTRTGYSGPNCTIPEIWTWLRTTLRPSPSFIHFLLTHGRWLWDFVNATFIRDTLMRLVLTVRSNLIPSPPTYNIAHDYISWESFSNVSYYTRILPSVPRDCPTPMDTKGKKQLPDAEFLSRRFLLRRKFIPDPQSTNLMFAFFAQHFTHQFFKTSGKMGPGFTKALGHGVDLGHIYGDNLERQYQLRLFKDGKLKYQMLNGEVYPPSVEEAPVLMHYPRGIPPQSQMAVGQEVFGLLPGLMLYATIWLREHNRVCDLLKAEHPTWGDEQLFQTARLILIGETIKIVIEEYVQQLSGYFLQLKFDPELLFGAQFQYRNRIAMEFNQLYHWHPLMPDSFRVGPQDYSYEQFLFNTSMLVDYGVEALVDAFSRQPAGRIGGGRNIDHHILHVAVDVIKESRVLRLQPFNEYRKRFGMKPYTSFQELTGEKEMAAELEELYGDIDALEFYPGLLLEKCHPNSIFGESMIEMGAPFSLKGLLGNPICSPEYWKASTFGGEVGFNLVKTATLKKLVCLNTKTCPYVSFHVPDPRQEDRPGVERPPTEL
# Description: (§1) The impact of the compounds (10 µM) to inhibit the isoenzymes COX-1 and COX-2, respectively, was investigated (Figure 5).
# (§2) The inhibition of both isolated isoenzymes, ovine COX-1 and ovine COX-2, respectively, were investigated at a concentration of 10 µM of the respective substances while employing an enzyme immunoassay (COX Inhibitor Screening Assay, Cayman Chemicals, Ann Arbor, MI, USA). The conduction of the assay was performed following the manufacturer’s protocol. Thereby, the isoenzymes were incubated with the particular compounds for exactly 10 min. The values express the mean of duplicate determinations and they represent the mean ± standard deviation of ≥2 independent experiments. The untreated control was set to 0% inhibition.
# (§3) Figure 5 Inhibition of isolated ovine COX-1 and COX-2. Values are given as % COX inhibition calculated from initial activity of vehicle treated enzyme and represent the mean ± standard deviation of ≥2 independent experiments.
# ovine COX-2 = biological target: T2, ovine COX-2 (Ovis aries, UniProt P79208); assay: COX-2 isoenzyme inhibition (COX Inhibitor Screening Assay, enzyme immunoassay); type: biochemical; settings: for COX-2 inhibition: 10 µM, incubation 10 min, isolated enzyme
# T2 construct: purchased Cayman Chemicals
# T2 sequence (P79208 17-603): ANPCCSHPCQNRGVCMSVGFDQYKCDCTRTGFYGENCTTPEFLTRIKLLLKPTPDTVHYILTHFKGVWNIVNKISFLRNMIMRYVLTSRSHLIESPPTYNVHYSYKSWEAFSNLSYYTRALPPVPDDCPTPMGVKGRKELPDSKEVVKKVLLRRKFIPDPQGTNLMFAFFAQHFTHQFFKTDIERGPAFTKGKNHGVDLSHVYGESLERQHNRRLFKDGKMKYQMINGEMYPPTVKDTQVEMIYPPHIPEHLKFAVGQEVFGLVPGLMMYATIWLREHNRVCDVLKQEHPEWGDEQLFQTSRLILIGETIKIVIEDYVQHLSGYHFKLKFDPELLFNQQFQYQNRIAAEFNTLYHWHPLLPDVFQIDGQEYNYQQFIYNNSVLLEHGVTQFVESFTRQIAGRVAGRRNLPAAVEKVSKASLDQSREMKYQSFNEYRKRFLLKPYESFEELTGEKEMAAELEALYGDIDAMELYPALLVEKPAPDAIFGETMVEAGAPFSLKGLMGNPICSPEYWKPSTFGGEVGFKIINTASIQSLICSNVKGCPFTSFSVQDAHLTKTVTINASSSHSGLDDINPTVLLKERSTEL
# Description: as §1, §2, §3
# [1] = tested on: HT-29 colon carcinoma cells; assay: Antiproliferative effects, crystal violet cell biomass assay, HT-29; type: cell-based; settings: for IC50: 72 h incubation, crystal violet
# Description: (§4) The growth inhibitory effects of ASA, Zeise’s salt as well as the thereof derived complexes 1a–4a were investigated in vitro against the HT-29 and the MCF-7 cell lines. Thereby, an already published crystal violet assay was employed, in which the cell biomass reduced by the substances was determined as parameter. Cisplatin was applied as positive control.
# (§5) The HT-29 colon carcinoma and the MCF-7 breast cancer cell lines were obtained from the cell line service (CLS, Eppelheim, Germany). The HT-29 and the MCF-7 cells were cultivated as a monolayer in Dulbecco’s Modified Eagle Medium (DMEM) containing glucose (4.5 g/L) and lacking phenol red (GE Healthcare, Little Chalfont, UK), supplemented with fetal calf serum (FCS; 10%; Biochrom) and L-glutamine (584 mg/L; GE Healthcare). The cells were cultured in a humidified atmosphere (5% CO2/95% air) at 37 °C and were passaged regularly twice a week. The cell lines were characterized by typing short tandem repeats and routinely monitored for mycoplasma infection.
# (§6) The effects of the newly synthesized substances on the cell biomass were determined in vitro while employing a crystal violet assay. The testing was performed following a modified protocol, as previously published. Exponentially growing HT-29 and MCF-7 cells were seeded in 96-well tissue culture plates with a density of 3 × 10^3 and 2 × 10^3 cells, respectively, in 100 µL of completed DMEM per well in quadruples. The plates were kept in a humidified atmosphere (5% CO2/95% air) at 37 °C for 24 h prior to the addition of completed medium containing the vehicle DMF, the positive control Cisplatin, and the compounds to be tested, respectively. After 72 h of incubation, the medium was removed, the cells were washed with PBS and fixed using a solution of glutaraldehyde in PBS (1%, v/v). The cell biomass was examined by staining the chromatin of adherent cells with crystal violet, extraction of the stain with ethanol (70%, v/v) and following measurement of absorbance (λ = 590 nm). The cell viability is given as percentage of cell viability of the vehicle treated control, which was set to 100%. The IC50 values represent the mean ± standard error of mean of ≥2 independent experiments and they were calculated with Prism 7.0 (GraphPad, San Diego, CA, USA) using nonlinear regression and decadal logarithm of the inhibitor versus variable slope equation. The top constraint was set to 100%.
# [2] = tested on: MCF-7 breast cancer cells; assay: Antiproliferative effects, crystal violet cell biomass assay, MCF-7; type: cell-based; settings: for IC50: 72 h incubation, crystal violet
# Description: as §4, §5, §6
# [3] = Stability in other media (aqueous conditions, cell culture medium, DMSO); type: physicochemical; settings: degraded immediately after addition
# [4] = design: method as in doi:10.1002/zaac.19603050315; settings: degrades in a redox reaction building acetaldehyde and Pt(0); cited from earlier work
# [5] = Evaluation of stability by capillary electrophoresis; type: physicochemical
# From the text: Capillary electrophoresis (CE) was employed in order to determine the stability of the anionic platinum(II) complexes in aqueous media. Therefore, a method was established that allowed the detection of the respective complex and possible degradation products in a short period of time (for further information on the setup see Section 4). Methanol was chosen as a non-coordinating co-solvent for the sample solutions (final amount of methanol: 50%) in order to guarantee the solubility of decomposition products. In contrast to HPLC analysis, it was possible to separate the platinum complex (tm = 6.3 min) from the free ligand (tm = 4.4 min) using a 50 mM sodium tetraborate solution (pH = 9.3) as the background electrolyte (temperature: 25 °C; UV-detection: 230 nm; capillary: fused silica 64.5 cm × 75 µm, effective length 56 cm; 20 kV). […] The reactions followed pseudo-first order kinetics (R^2 ≥ 0.99) under the experimental conditions that were implemented.
# A 50 mM sodium tetraborate solution with a pH of 9.3 (adjusted with 1 M NaOH solution) was used as the background electrolyte (BGE). Prior to the first utilization new capillaries were washed with 1 M NaOH solution (45 min), water (45 min) and BGE (45 min). Samples were injected into the capillary via hydrodynamic mode (50 mbar for 2 s). The capillary was thermostated at 25 °C, whereas the autosampler was kept at 37 °C by an external water bath. The separation voltage was 20 kV and the detection wavelength was set to 230 nm. The required run time was 10 min. The capillary was flushed consecutively with 0.1 M NaOH solution (3 min), water (3 min), and BGE (5 min) before each measurement. For the purpose of stability testing, the complexes were dissolved in methanol and diluted 1:1 (v/v) with water, 1.8% aqueous NaCl solution, or double-concentrated PBS to a final concentration of 1 mM. Every experiment was performed in triplicate. The half-lives are presented as mean ± standard deviation. All of the samples, buffers, and washing solutions were membrane filtered (0.22 µm porosity) and degassed by ultrasonication prior to usage.
# [6] = up to a concentration of 100 µM
# [7] = methanol/water 1:1, 1 mM, 37 °C
Molecule,COX-1 inhibition (ovine COX-1) [%],inhibition at 10 µM (ovine COX-2; read-out: COX-2 inhibition) [%],"IC50 ([1]; Homo sapiens, HT-29) [µM]","antiproliferative activity against HT-29 [1, 6]","IC50 ([2]; Homo sapiens, MCF7) [µM]","antiproliferative activity against MCF-7 [2, 6]",IC50 [1] [µM],IC50 [2] [µM],COX-2 inhibition (ovine COX-2) [%],stability in cell culture medium [3],stability under aqueous conditions [4],"recovery of the intact complex ([5]; 154 mM Cl− in 50% methanol/water, after 168 h) [%]","half-live (τ1/2) ([5]; PBS pH 7.4 in methanol/water, degraded to Pt-Butene-SA) [h]","half-live (τ1/2) [5, 7] [h]","stability in methanol ([5]; methanol, 48 h)"
"CC(=O)Oc1ccccc1C(=O)O [ASA, acetylsalicylic acid]",29.2,1,≥ 50,inactive,≥ 50,inactive,,,,,,,,,
"N.N.[Cl][Pt][Cl] [Cisplatin, reference compound]",,,,,,,2.6 ± 0.1,3.7 ± 0.3,,,,,,,
"C=C.[Cl-].[Cl-].[Cl-].[K+].[Pt+2] [Zeise’s salt, potassium trichlorido[ethylene]platinate(II)]",83.8,,,,,,≥ 50,≥ 50,11.3,not stable,very unstable,,,,
Potassium {trichlorido[η^2-(but-3-en-1-yl)-2-acetoxybenzoate]platinate(II)} [Compound 2a],70.0,,,,,,31.4 ± 0.4,30.1 ± 1.5,28.7,,,80.3 ± 3.2,7.95 ± 0.09,69.6 ± 3.0,
Potassium {trichlorido[η^2-(hex-5-en-1-yl)-2-acetoxybenzoate]platinate(II)} [Compound 4a],96.6,,,,,,41.4 ± 0.3,43.7 ± 5.7,33.0,,,,,55.4 ± 4.0,
Potassium {trichlorido[η^2-(pent-4-en-1-yl)-2-acetoxybenzoate]platinate(II)} [Compound 3a],93.8,,,,,,44.2 ± 3.4,37.4 ± 2.5,15.3,,,,,73.5 ± 4.7,
Potassium {trichlorido[η^2-(prop-2-en-1-yl)-2-acetoxybenzoate]platinate(II)} [Compound 1a],67.3,,,,,,49.7 ± 1.8,≥ 50,17.4,,,,,0.595 ± 0.01,stable
